The record followed here is patent US7265096B2 (XenoPort, Inc., priority 2002, dated 2007).

Data set [1] is described as follows: Pharmacokinetics and intestinal exposure to gemcitabine after oral dosing in mice. It counts as in vivo. Conditions: mice, oral, 20 mg-eq. gemcitabine/kg. The method, then: Blood samples (0.5 mL) were obtained by cardiac puncture from 4 animals at each time point (1, 5, 10, 15, 30, 45 minutes and 1, 2, 4, 6 and 24 hr post-dosing). Samples were immediately transferred to tubes containing 10 μL of tetrahydrouridine (50 μg/mL in 50% methanol/water) to prevent further deamination and aliquots (100 μL) were quenched with a solution of 1% w/w formic acid in acetonitrile (300 μL). Quenched blood samples were stored at −80° C. until analyzed. Following collection of blood samples, the small intestine of each animal was removed, rinsed with saline, scraped to remove the mucosal layer, and the mucosal tissue was transferred to a pre-weighed vial containing 10 μL of tetrahydrouridine (50 μg/mL in 50% methanol/water). Sample vials were snap frozen in dry ice/acetone and stored at −80° C. until analyzed. Mucosal tissue samples were diluted 1:10 in water and 100 μL of the resulting sample was added to 400 μL of methanol.

The target in a further data set is T1, ENT2 (Homo sapiens, UniProt Q14542).
T1 construct: expressed in transfected cells; host or cells: Xenopus laevis oocytes injected with RNA
T1 sequence (Q14542 1-456): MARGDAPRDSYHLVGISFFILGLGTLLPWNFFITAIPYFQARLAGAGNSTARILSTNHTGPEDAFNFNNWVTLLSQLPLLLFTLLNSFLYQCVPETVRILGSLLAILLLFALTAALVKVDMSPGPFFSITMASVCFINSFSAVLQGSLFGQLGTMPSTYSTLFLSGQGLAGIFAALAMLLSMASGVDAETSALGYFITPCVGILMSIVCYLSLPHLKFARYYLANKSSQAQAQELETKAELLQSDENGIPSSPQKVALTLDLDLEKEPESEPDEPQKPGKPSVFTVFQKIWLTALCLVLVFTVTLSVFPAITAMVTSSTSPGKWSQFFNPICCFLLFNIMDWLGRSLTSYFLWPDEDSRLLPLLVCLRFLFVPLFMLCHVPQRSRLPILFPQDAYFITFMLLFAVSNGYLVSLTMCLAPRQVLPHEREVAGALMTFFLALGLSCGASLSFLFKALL
As to the kind of experiment: Mass spectroscopy analysis of active transport into oocytes expressing ENT2. The data set is classed as cell-based. The following applies: 0.1-3 mM, 10-30 minutes, LC/MS/MS, vs non-expressing oocytes. The protocol:
(§1) (b) Mass Spectroscopy Analysis of Active Transport of Compounds into Oocytes Expressing CNT1, CNT2, CNT3, ENT1 or ENT2
(§2) Transporters were expressed in oocytes as described above (a). Experiments were performed 3-5 days following injection. Oocytes were incubated with 0.1-3 mM of compounds for 10-30 minutes in frog ringers solution (90 mM NaCl, 2 mM KCl, 1 mM MgCl2, 2 mM CaCl2, 10 mM NaHEPES, pH 7.45, and 1% BSA). Experiments were performed at room temperature. For each compound, 4-7 oocytes were incubated for each transporter or non-expressing control. Following incubation, oocytes were rapidly washed 4 times in frog ringers solution, and placed one oocyte per well in a 96 well plate. Oocytes were homogenized in 0.15 mL solution containing 50% ethanol:water or 50% methanol:water. Precipitated protein or cellular matter was pelleted by spinning plates at 3000 RPM for 5 minutes. The solvent layer containing the extracted compounds was removed from wells.
(§3) The concentration of each compound in the oocyte extract was determined by analytical LC/MS/MS. Briefly, concentrations of test compound were determined using an API 2000 LC/MS/MS instrument equipped with an Agilent 1100 binary pump and a CTC HTS-PAL autosampler. The column was a Phenomenex hydro-RP 4.6×50 mm column. The mobile phase was water with 0.1% formic acid, 0.005% heptafluorobutyric acid (A) and acetonitrile with 0.1% formic acid, 0.005% heptafluorobutyric acid (B). The gradient condition was: 5% B for 0.5 min, then to 95% B in 2.5 min, then maintained at 95% B for 1 min. The mobile phase was returned to 5% B for 2 min. A TurboIonSpray source was used on the API 2000. The analysis was done in positive ion mode and an MRM transition of each analyte was first optimized using the standard solution. 10 μL of the samples were injected onto LC/MS/MS system for analysis. The peaks were integrated using Analyst 1.2 quantitation software. Specific uptake was determined by comparison of average uptake in oocytes expressing transporters with uptake in non-expressing oocytes.

A further data set deals with T2, ENT1 (Homo sapiens, UniProt Q99808).
T2 construct: expressed in transfected cells; host or cells: Xenopus laevis oocytes injected with RNA
T2 sequence (Q99808 1-456): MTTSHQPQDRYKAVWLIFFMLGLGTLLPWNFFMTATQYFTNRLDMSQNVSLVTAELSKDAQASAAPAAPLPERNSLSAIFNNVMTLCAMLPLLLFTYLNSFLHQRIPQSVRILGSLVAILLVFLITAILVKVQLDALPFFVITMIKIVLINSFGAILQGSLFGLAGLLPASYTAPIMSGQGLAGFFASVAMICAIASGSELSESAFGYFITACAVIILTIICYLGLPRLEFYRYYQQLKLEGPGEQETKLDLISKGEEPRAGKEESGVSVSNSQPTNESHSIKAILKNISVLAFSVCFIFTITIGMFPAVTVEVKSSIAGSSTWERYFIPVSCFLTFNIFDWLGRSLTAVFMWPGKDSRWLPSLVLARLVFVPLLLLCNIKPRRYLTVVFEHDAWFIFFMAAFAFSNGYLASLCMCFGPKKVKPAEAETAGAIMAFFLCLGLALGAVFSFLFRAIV
As to the kind of experiment: Mass spectroscopy analysis of active transport into oocytes expressing ENT1. The data set is classed as cell-based. Conditions: 0.1-3 mM, 10-30 minutes, LC/MS/MS, vs non-expressing oocytes. The method, then: as §1, §2, §3

In the next data set the target is T3, CNT1 (Homo sapiens, UniProt O00337).
T3 construct: expressed in transfected cells; host or cells: Xenopus laevis oocytes injected with in vitro transcribed RNA
T3 sequence (O00337 1-649): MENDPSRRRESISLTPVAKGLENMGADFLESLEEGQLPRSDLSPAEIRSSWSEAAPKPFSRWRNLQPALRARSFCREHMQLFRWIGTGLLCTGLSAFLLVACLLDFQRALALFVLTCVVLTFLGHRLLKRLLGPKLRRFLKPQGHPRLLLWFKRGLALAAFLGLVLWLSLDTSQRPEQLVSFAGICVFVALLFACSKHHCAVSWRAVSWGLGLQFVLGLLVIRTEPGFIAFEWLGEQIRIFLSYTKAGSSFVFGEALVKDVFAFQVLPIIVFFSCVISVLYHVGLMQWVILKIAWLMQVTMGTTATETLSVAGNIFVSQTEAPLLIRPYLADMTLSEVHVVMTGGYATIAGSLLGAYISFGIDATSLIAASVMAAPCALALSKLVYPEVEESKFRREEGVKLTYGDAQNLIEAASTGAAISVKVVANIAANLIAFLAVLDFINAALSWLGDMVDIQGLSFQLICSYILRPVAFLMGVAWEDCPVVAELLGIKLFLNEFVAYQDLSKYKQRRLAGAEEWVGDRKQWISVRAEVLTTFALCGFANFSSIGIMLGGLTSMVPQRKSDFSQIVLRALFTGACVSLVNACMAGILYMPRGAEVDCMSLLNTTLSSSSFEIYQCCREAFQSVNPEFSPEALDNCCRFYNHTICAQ
As to the kind of experiment: Mass spectroscopy analysis of active transport into oocytes expressing CNT1. The data set is classed as cell-based. Conditions: 0.1-3 mM, 10-30 minutes, LC/MS/MS, vs non-expressing oocytes.
Source text: (§4) Human CNT1, CNT2 and CNT3 transporter cDNAs were subcloned into a modified pGEM plasmid that contains 5′ and 3′ untranslated sequences from the Xenopus β-actin gene. These sequences increase RNA stability and protein expression. Plasmid cDNA was linear zed and used as template for in vitro transcription (Epicentre Technologies transcription kit, 4:1 methylated:non-methylated GTP).
as §1, §2
The concentration of each compound in the oocyte extract was determined by analytical LC/MS/MS. Briefly, concentrations of test compound were determined using an API 2000 LC/MS/MS instrument equipped with an Agilent 1100 binary pump and a CTC HTS-PAL autosampler. The column was a Phenomenex hydro-RP 4.6×50 mm column. The mobile phase was water with 0.1% formic acid, 0.005% heptafluorobutyric acid (A) and acetonitrile with 0.1% formic acid, 0.005% heptafluorobutyric acid (B). […] The peaks were integrated using Analyst 1.2 quantitation software. Specific uptake was determined by comparison of average uptake in oocytes expressing transporters with uptake in non-expressing oocytes.

Another data set deals with T4, CNT3 (Homo sapiens, UniProt Q9HAS3).
T4 construct: expressed in transfected cells; host or cells: Xenopus laevis oocytes injected with in vitro transcribed RNA
T4 sequence (Q9HAS3 1-691): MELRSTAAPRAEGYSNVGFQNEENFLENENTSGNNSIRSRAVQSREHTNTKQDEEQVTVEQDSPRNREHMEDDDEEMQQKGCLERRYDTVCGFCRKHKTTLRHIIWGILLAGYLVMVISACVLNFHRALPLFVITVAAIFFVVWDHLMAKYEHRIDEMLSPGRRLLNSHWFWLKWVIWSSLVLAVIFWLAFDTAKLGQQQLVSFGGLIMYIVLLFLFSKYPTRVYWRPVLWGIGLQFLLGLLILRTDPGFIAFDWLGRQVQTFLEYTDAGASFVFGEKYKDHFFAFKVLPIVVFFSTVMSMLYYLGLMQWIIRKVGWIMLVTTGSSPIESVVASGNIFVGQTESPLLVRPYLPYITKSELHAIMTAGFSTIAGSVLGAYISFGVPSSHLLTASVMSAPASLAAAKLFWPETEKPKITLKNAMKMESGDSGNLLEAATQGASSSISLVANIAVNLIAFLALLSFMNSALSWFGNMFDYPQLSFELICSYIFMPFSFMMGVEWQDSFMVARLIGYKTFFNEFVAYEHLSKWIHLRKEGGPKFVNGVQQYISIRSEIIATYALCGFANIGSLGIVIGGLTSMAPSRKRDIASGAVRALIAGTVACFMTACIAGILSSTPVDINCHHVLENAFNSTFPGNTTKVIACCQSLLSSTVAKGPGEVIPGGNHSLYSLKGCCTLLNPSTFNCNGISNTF
As to the kind of experiment: Mass spectroscopy analysis of active transport into oocytes expressing CNT3. It counts as cell-based. Conditions: 0.1-3 mM, 10-30 minutes, LC/MS/MS, vs non-expressing oocytes.
Source text: as §4, §1, §2, §3

In the case of `CC(C)(C)C(=O)OC(OC(=O)NCCOC(=O)Nc1ccn([C@@H]2O[C@H](CO)[C@@H](O)C2(F)F)c(=O)n1)C(C)(C)C` (stereo partly shown) [Compound 63], the “Oral bioavailability as gemcitabine (in words)” value (from here on “Oral bioavailability”) in data set [1] was “substantial oral bioavailability”.
Take `CCOC(=O)Nc1ccn([C@@H]2O[C@H](CO)[C@@H](O)C2(F)F)c(=O)n1` [Compound 11, β-1-(4-Ethoxycarbonylamino-2-oxo-1H-pyrimidin-1-yl)-2-deoxy-2,2-difluororibose]: in data set [1], the “Oral bioavailability” value was “substantial oral bioavailability”. The “Specific uptake into oocytes expressing ENT2” value at ENT2 is on record as “Significant uptake over background”. Moreover, on ENT1, the “Specific uptake into oocytes expressing ENT1” value is reported as “Significant uptake over background”. Besides, the “Specific uptake into oocytes expressing CNT1” value at CNT1 is on record as “Significant uptake over background”. For the same compound, the “Specific uptake into oocytes expressing CNT3” value at CNT3 was “Significant uptake over background”.
Turning to `C=C(C)OC(=O)Nc1ccn([C@@H]2O[C@H](CO)[C@@H](O)C2(F)F)c(=O)n1` [Compound 38, β-1-(4-(Propen-2-yl)oxycarbonylamino-2-oxo-1H-pyrimidin-1-yl)-2-deoxy-2,2-difluororibose], in data set [1], the “Oral bioavailability” value was “substantial oral bioavailability”. The “Specific uptake into oocytes expressing ENT2” value at ENT2 was “Significant uptake over background”. At ENT1, the “Specific uptake into oocytes expressing ENT1” value was “Significant uptake over background”. On CNT1, the “Specific uptake into oocytes expressing CNT1” value is given as “Significant uptake over background”. Further, the “Specific uptake into oocytes expressing CNT3” value at CNT3 is recorded as “Significant uptake over background”.
As for `CC(C)[C@H](N)C(=O)O[C@@H]1[C@@H](CO)O[C@@H](n2ccc(N)nc2=O)C1(F)F` [Compound 3, β-1-(4-Amino-2-oxo-1H-pyrimidin-1-yl)-3-O-(L-valinyl)-2-deoxy-2,2-difluororibose], in data set [1], the “Oral bioavailability” value is “substantial oral bioavailability”.
For `CC(C)(C)C(=O)OCCCC(=O)Nc1ccn([C@@H]2O[C@H](CO)[C@@H](O)C2(F)F)c(=O)n1` [Compound 62, β-1-[4-(4-Pivaloyloxybutyroylamino)-2-oxo-1H-pyrimidin-1-yl]-2-deoxy-2,2-difluororibose], the “Oral bioavailability” value in data set [1] is “substantial oral bioavailability”. The “Specific uptake into oocytes expressing ENT2” value on ENT2 is given as “Significant uptake over background”. At ENT1, the “Specific uptake into oocytes expressing ENT1” value is listed as “Significant uptake over background”. Further, the “Specific uptake into oocytes expressing CNT1” value at CNT1 is reported as “Significant uptake over background”. For the same compound, the “Specific uptake into oocytes expressing CNT3” value at CNT3 was “Significant uptake over background”.
On to `CCCCCOC(=O)Nc1ccn([C@@H]2O[C@H](CO)[C@@H](O)C2(F)F)c(=O)n1` [Compound 26, β-1-(4-Pentyloxycarbonylamino-2-oxo-1H-pyrimidin-1-yl)-2-deoxy-2,2-difluororibose], for which the “Oral bioavailability” value in data set [1] is on record as “substantial oral bioavailability”. Also, at ENT2, the “Specific uptake into oocytes expressing ENT2” value is listed as “specific uptake was observed”. Besides, the “Specific uptake into oocytes expressing ENT1” value on ENT1 is on record as “specific uptake was observed”. Also, the “Specific uptake into oocytes expressing CNT3” value on CNT3 is recorded as “specific uptake was observed”.
Take `O=C(Nc1ccn([C@@H]2O[C@H](CO)[C@@H](O)C2(F)F)c(=O)n1)OCC(F)(F)F` [Compound 36, β-1-(4-(1,1,1-Trifluoroethyl)oxycarbonylamino-2-oxo-1H-pyrimidin-1-yl)-2-deoxy-2,2-difluororibose]: the “Oral bioavailability” value in data set [1] was “substantial oral bioavailability”. Moreover, the “Specific uptake into oocytes expressing ENT2” value on ENT2 is on record as “specific uptake was observed”. Further, the “Specific uptake into oocytes expressing ENT1” value at ENT1 is given as “specific uptake was observed”. Further, on CNT3, the “Specific uptake into oocytes expressing CNT3” value was “specific uptake was observed”.
